Test results taken from ChEMBL document CHEMBL5576132 (J Med Chem, 2024).
Active and inactive are the calls of the source. No cut-off for these calls is given here.

Columns and labels:
[1] = Dose normalized AUC in mouse at 25 mg/kg, iv by HPLC-MS/MS analysis; format: ADME, organism-based; conditions: in vivo
[2] = Dose normalized AUC in mouse at 20 mg/kg, iv by HPLC-MS/MS analysis; format: ADME, organism-based; conditions: in vivo
[3] = Clearance in dog assessed as hepatic blood flow at 0.9 mg/kg, iv by HPLC-MS/MS analysis; format: ADME, organism-based, Canis lupus familiaris, Liver; conditions: in vivo
[4] = Clearance in dog assessed as hepatic blood flow at 0.25 mg/kg, iv by HPLC-MS/MS analysis; format: ADME, organism-based, Canis lupus familiaris, Liver; conditions: in vivo
[5] = target: Induced myeloid leukemia cell differentiation protein Mcl-1 (Homo sapiens) (UniProt Q07820); conditions: time 3.0 hrs
Sequence of Induced myeloid leukemia cell differentiation protein Mcl-1 (Homo sapiens) (Q07820 whole entry): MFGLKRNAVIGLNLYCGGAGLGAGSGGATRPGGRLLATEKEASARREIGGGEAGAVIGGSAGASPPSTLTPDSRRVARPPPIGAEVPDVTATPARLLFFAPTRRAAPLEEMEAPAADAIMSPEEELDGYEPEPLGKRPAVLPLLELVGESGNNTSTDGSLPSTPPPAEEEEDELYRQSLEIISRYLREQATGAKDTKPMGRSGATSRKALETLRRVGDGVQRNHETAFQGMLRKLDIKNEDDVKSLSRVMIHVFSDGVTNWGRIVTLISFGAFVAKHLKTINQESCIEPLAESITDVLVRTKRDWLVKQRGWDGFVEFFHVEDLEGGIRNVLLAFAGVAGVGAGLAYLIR

[6] = Toxicity in CB17/Icr-Prkdc(scid)/IcrCrl mouse assessed as reduction in tumor area at 10 mg/kg, iv measured after 21 days by Ki67 staining based analysis; format: organism-based; conditions: in vivo, 504 h, time 21 day
A-427 [7] = experiment: Antitumor activity against human A-427 cells xenografted in CB17/Icr-Prkdc(scid)/IcrCrl mouse model assessed as tumor regression at 10 mg/kg, iv administered daily for 7 days and measured upto 21 days; format: functional, organism-based; conditions: time <= 21.0 day
[8] = Toxicity in CB17/Icr-Prkdc(scid)/IcrCrl mouse assessed as reduction in tumor area at 10 mg/kg, iv measured after 21 days by H and E staining based analysis; format: organism-based; conditions: in vivo, 504 h, time 21 day
A-427 [9] = experiment: Antitumor activity against human A-427 cells xenografted in CB17/Icr-Prkdc(scid)/IcrCrl mouse model assessed as tumor regression at 60 mg/kg, iv administered daily for 7 days and measured upto 21 days in presence of docetaxel; format: functional, organism-based; conditions: time <= 21.0 day
[10] = AUC in CB17/Icr-Prkdc(scid)/IcrCrl mouse at 60 mg/kg, iv administered daily for 7 days and measured upto 21 days in presence of (R)-7-(7-Chloro-10-(3-(4-chloro-3,5-dimethylphenoxy)propyl)-4-methyl-1-oxo-6-(2,4,6-trimethylpyrimidin-5-yl)-3,4-dihydropyrazino[1,2-a]indol-2(1H)-yl)-4-methoxy-1-methyl-5-((tetrahydro-2H-pyran-4-yl)methoxy)-1H-indole-2-carboxylic Acid; format: ADME, organism-based; conditions: in vivo, time < 21 day
NCI-H929 [11] = experiment: Growth inhibition of human NCI-H929 cells measured after 72 to 96 hrs by cell-titer glo assay; format: functional; conditions: time 72-96 hrs
K562 = experiment: Growth inhibition of human K562 cells measured after 72 to 96 hrs by cell-titer glo assay; format: functional; conditions: time 72-96 hrs
[12] = Dose normalized AUC in mouse at 5 mg/kg, iv by HPLC-MS/MS analysis; format: ADME, organism-based; conditions: in vivo
NCI-H1048 [13] = experiment: Antitumor activity against human NCI-H1048 cells xenografted in BomTac:NMRI-Foxn1nu mouse model assessed as tumor growth inhibition at 60 mg/kg, iv administered daily for 7 days and measured upto 16 days in presence of topotecan relative to control; format: functional; conditions: NCI-H1048, 384 h, time <= 16 day, read-out: TGI
A-427 [14] = experiment: Antiproliferative activity against human A-427 cells at upto 1000 nM measured after 72 to 96 hrs in presence of docetaxel by cell-titer glo assay; format: functional, cell-based; conditions: time 72-96 hrs
[15] = Toxicity in CB17/Icr-Prkdc(scid)/IcrCrl mouse assessed as reduction in tumor area at 60 mg/kg, iv measured after 21 days by Ki67 staining based analysis; format: organism-based; conditions: in vivo, 504 h, time 21 day
[16] = Clearance in dog assessed as hepatic blood flow at 0.5 mg/kg, iv by HPLC-MS/MS analysis; format: ADME, organism-based, Canis lupus familiaris, Liver; conditions: in vivo
[17] = Toxicity in CB17/Icr-Prkdc(scid)/IcrCrl mouse assessed as reduction in tumor area at 60 mg/kg, iv measured after 21 days in presence of docetaxel by H and E staining based analysis; format: organism-based; conditions: in vivo, 504 h, time 21 day
[18] = AUC in CB17/Icr-Prkdc(scid)/IcrCrl mouse at 60 mg/kg, iv administered daily for 7 days and measured upto 21 days in presence of docetaxel; format: ADME, organism-based; conditions: in vivo, time < 21 day
[19] = Toxicity in CB17/Icr-Prkdc(scid)/IcrCrl mouse assessed as reduction in tumor area at 60 mg/kg, iv measured after 21 days presence of docetaxel by Ki67 staining based analysis; format: organism-based; conditions: in vivo, 504 h, time 21 day
[20] = Toxicity in CB17/Icr-Prkdc(scid)/IcrCrl mouse assessed as effect on body weight at 60 to 80 mg/kg, iv administered as single dose measured after 15 days; format: organism-based; conditions: in vivo, 360 h, dose 60-80 mg/kg, time 15 day
NCI-H929 [21] = experiment: Antitumor activity against human NCI-H929 cells xenografted in CB17/Icr-Prkdc(scid)/IcrCrl mouse assessed as disruption of Mcl-1:BIM complex; format: functional, cell-based; conditions: time <= 48.0 hrs, TDE = time-dependent effect
NCI-H1048 [22] = experiment: Antitumor activity against human NCI-H1048 cells xenografted in BomTac:NMRI-Foxn1nu mouse model assessed as tumor growth regression at 60 mg/kg, iv administered daily for 7 days and measured upto 16 days in presence of topotecan; format: functional, organism-based; conditions: time <= 16.0 day
Cytochrome P450 2C8 = target: T1, Cytochrome P450 2C8 (Homo sapiens, UniProt P10632); experiment: Inhibition of CYP2C8 (unknown origin); format: ADME
T1 sequence (P10632 whole entry): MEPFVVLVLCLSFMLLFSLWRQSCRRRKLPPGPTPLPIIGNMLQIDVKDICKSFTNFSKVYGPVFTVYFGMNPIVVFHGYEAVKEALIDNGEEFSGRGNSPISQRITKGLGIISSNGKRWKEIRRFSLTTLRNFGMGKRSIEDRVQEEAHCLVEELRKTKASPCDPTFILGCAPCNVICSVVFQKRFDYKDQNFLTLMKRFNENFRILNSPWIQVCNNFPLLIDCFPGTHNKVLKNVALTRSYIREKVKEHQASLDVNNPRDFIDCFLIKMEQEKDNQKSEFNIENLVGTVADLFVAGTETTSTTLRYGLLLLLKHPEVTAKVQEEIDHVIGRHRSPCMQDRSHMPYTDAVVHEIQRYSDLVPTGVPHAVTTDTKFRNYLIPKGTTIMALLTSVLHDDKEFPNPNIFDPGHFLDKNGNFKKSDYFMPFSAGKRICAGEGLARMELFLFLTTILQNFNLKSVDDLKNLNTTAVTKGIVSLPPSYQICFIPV

NCI-H929 [23] = experiment: Antitumor activity against human NCI-H929 cells xenografted in CB17/Icr-Prkdc(scid)/IcrCrl mouse model assessed as increase in […] activity measured upto 48 hrs by glo reagent based analysis; format: functional, cell-based
Cytochrome P450 3A4 [24] = target: T2, Cytochrome P450 3A4 (Homo sapiens, UniProt P08684); experiment: Time dependent inhibition of CYP3A4 (unknown origin) relative to control; format: ADME
T2 sequence (P08684 whole entry): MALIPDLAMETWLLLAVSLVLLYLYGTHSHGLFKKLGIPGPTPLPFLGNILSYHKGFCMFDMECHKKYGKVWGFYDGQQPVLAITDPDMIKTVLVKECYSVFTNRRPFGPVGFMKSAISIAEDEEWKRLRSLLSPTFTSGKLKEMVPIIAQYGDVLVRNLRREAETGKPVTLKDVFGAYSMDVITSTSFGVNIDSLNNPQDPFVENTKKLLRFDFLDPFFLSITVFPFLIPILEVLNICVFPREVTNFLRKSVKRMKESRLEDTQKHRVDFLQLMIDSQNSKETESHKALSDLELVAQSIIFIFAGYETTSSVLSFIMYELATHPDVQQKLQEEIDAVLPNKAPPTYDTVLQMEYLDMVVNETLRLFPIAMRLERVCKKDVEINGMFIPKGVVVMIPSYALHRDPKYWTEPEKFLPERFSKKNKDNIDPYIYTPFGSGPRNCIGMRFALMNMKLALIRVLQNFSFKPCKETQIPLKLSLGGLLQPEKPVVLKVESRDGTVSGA

[25] = Toxicity in CB17/Icr-Prkdc(scid)/IcrCrl mouse assessed as reduction in tumor area at 60 mg/kg, iv measured after 21 days by H and E staining based analysis; format: organism-based; conditions: in vivo, 504 h, time 21 day
[26] = Plasma protein binding (unknown origin); format: ADME, cell-free; conditions: read-out: PPB (converted)
Cytochrome P450 3A4 [27] = target: T2, Cytochrome P450 3A4; experiment: Inhibition of CYP3A4 (unknown origin); format: ADME

With `COCCOc1cc(N2C[C@@H](C)n3c(c(CCCOc4cc(C)c(Cl)c(C)c4)c4ccc(Cl)c(-c5c(C)ncnc5C)c43)C2=O)c2c(cc(C(=O)O)n2C)c1OC` the AUC/dose [1] was 380 nM·h/mg/kg.

In the case of `CCOc1c(OCC2CCOCC2)cc(N2C[C@@H](C)n3c(c(CCCOc4cc(C)c(Cl)c(C)c4)c4ccc(Cl)c(-c5c(C)nc(C)nc5C)c43)C2=O)c2c1cc(C(=O)O)n2C`, the AUC/dose [2] is reported as 4930 nM·h/mg/kg.

Work on `COc1c(OC[C@@H]2CCCO2)cc(N2C[C@@H](C)n3c(c(CCCOc4cc(C)c(Cl)c(C)c4)c4ccc(Cl)c(-c5c(C)nc(C)nc5C)c43)C2=O)c2c1cc(C(=O)O)n2C` yielded a QH [3] of 29% and an AUC/dose [2] of 2190 nM·h/mg/kg.

With `COc1c(OC[C@H]2CCCO2)cc(N2C[C@@H](C)n3c(c(CCCOc4cc(C)c(Cl)c(C)c4)c4ccc(Cl)c(-c5c(C)nc(C)nc5C)c43)C2=O)c2c1cc(C(=O)O)n2C` the AUC/dose [2] was 2510 nM·h/mg/kg.

Work on `COCCOc1cc(N2C[C@@H](C)n3c(c(CCCOc4cc(C)c(Cl)c(C)c4)c4ccc(Cl)c(-c5c(C)nc(C)nc5C)c43)C2=O)c2c(cc(C(=O)O)n2C)c1OC` yielded a QH [4] of 50% and an AUC/dose [1] of 334 nM·h/mg/kg.

Work on `CCOc1c(O[C@H]2CCOC2)cc(N2C[C@@H](C)n3c(c(CCCOc4cc(C)c(Cl)c(C)c4)c4ccc(Cl)c(-c5c(C)nc(C)nc5C)c43)C2=O)c2c1cc(C(=O)O)n2C` yielded an AUC/dose [2] of 2460 nM·h/mg/kg.

In the case of `Cc1cc(OCCCc2c3n(c4c(-c5c(C)nn(C)c5C)c(Cl)ccc24)[C@H](C)CN(c2cccc4cc(C(=O)O)n(C)c24)C3=O)cc(C)c1Cl`, the Activity [5] is reported as “inactive”.

For `CC(=O)O[C@@]12CO[C@@H]1C[C@H](O)[C@@]1(C)C(=O)[C@H](O)C3=C(C)[C@@H](OC(=O)[C@H](O)[C@@H](NC(=O)OC(C)(C)C)c4ccccc4)C[C@@](O)([C@@H](OC(=O)c4ccccc4)[C@H]21)C3(C)C` [DOCETAXEL ANHYDROUS], the Activity [6] was “Non-Toxic”, the Activity (A-427 [7]) was “Active” and the Activity [8] was “Non-Toxic”. The Activity (A-427 [9]) was “Active” and the AUC at 504 h [10] was 0.0234 µM·h.

For `COc1c(O[C@@H]2CCOC2)cc(N2C[C@@H](C)n3c(c(CCCOc4cc(C)c(Cl)c(C)c4)c4ccc(Cl)c(-c5c(C)nc(C)nc5C)c43)C2=O)c2c1cc(C(=O)O)n2C`, the GI50 (NCI-H929 [11]) was 26 nM, the GI50 (K562) was greater than 12000 nM and the AUC/dose [2] was 1420 nM·h/mg/kg.

Compound `COc1c(O[C@H]2CCOC2)cc(N2C[C@@H](C)n3c(c(CCCOc4cc(C)c(Cl)c(C)c4)c4ccc(Cl)c(-c5c(C)nc(C)nc5C)c43)C2=O)c2c1cc(C(=O)O)n2C` has a GI50 (NCI-H929 [11]) of 22 nM, a GI50 (K562) of 8000 nM and a QH [3] of 38%. It also gave an AUC/dose [12] of 1860 nM·h/mg/kg.

With `COc1c(OC[C@H]2CCCO2)cc(N2C[C@@H](C)n3c(c(CCCOc4cc(C)c(Cl)c(C)c4)c4ccc(Cl)c(-c5c(C)ncnc5C)c43)C2=O)c2c1cc(C(=O)O)n2C` the AUC/dose [1] was 1480 nM·h/mg/kg.

For `CC[C@@]1(O)C(=O)OCc2c1cc1n(c2=O)Cc2cc3c(CN(C)C)c(O)ccc3nc2-1` [TOPOTECAN], the inhibition in vivo at 60 mg/kg (NCI-H1048 [13]) was 108%.

In the case of `COc1c(OCC2CCOCC2)cc(N2C[C@@H](C)n3c(c(CCCOc4cc(C)c(Cl)c(C)c4)c4ccc(Cl)c(-c5c(C)nc(C)nc5C)c43)C2=O)c2c1cc(C(=O)O)n2C`, the Activity (A-427 [14]) is reported as “Active”, the Activity [15] is reported as “Non-Toxic” and the QH [16] is reported as 17%. For the same compound, the Activity [17] was “Non-Toxic”, the AUC at 504 h [18] was 0.382 µM·h and the Activity [19] was “Non-Toxic”. The Activity [20] was “Non-Toxic”, the Activity (NCI-H929 [21]) was “Tde” and the Activity (NCI-H1048 [22]) was “Active”. For the same compound, the IC50 (Cytochrome P450 2C8) was 2100 nM, the Activity (NCI-H929 [23]) was “Active” and the TDI (Cytochrome P450 3A4 [24]) was 67%. For the same compound, the Activity [25] was “Non-Toxic”, the fraction unbound [26] was 0.002 and the IC50 (Cytochrome P450 3A4 [27]) was 1800 nM. The AUC/dose [1] was 9000 nM·h/mg/kg.

Work on `COc1c(OCC2CCOCC2)cc(N2C[C@@H](C)n3c(c(CCCOc4cc(C)c(Cl)c(C)c4)c4ccc(Cl)c(-c5c(C)ncnc5C)c43)C2=O)c2c1cc(C(=O)O)n2C` yielded an AUC/dose [2] of 2830 nM·h/mg/kg.
